For the test, the target named is T1, GIRK1/2 (UniProt P48542+P48549).
T1 sequence (P48549 1-501): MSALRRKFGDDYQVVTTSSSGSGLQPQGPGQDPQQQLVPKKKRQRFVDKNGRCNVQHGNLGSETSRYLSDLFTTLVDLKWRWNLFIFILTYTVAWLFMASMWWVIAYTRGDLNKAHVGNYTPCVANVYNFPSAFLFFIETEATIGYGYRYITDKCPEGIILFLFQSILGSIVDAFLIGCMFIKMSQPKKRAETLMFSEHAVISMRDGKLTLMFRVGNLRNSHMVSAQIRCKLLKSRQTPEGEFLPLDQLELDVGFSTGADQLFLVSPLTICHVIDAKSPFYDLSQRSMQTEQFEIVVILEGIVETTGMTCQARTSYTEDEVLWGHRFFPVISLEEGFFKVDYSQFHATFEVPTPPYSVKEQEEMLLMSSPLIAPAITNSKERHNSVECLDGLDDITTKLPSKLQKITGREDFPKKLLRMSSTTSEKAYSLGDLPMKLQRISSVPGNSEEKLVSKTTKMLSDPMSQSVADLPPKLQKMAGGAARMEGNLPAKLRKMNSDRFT
T1 sequence (P48542 1-425): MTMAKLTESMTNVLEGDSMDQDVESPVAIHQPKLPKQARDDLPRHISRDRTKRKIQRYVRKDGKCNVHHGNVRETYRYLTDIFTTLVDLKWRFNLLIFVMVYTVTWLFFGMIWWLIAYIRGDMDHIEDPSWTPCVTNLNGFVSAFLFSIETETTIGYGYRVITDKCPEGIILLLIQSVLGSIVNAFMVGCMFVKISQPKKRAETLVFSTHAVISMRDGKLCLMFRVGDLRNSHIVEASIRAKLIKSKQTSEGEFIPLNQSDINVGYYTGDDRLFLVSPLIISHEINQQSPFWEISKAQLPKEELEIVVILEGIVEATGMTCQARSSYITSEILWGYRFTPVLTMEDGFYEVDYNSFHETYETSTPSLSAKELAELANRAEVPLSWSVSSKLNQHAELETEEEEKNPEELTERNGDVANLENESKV
The test can be described thus: two-electrode voltage clamp (TEVC) in Xenopus oocytes expressing GIRK1/2 wild-type. The format is cell-based, human GIRK1, mouse GIRK2. Set-up: expressed in transfected cells; host or cells: Xenopus laevis oocytes (cRNA injection). The note with it: for selectivity for GIRK1/2 over GIRK1/4 (in words) / EC50: TEVC; for selectivity for GIRK1/2 over GIRK1/4 (in words): GIRK1/2 versus GIRK1/4; for EC50: Xenopus oocytes, GIRK1/2 wild-type; for EMAX at GIRK1/2: current normalized to basal current. An excerpt:
Molecular biology: For Xenopus oocyte expression, human GIRK1 and human GIRK4 cDNAs were subcloned into pGEMHE. For mammalian expression, human GIRK1 and human GIRK4 cDNAs were subcloned into pcDNA3 and pcDNA3.1/V5-His B, respectively (Invitrogen). Mouse GIRK2 cDNA was subcloned in the dual-function vector, pXoom. Point mutations were introduced using a standard Pfu-based mutagenesis technique according to the QuikChange protocol (Agilent). Mutations were verified by sequencing.
Xenopus laevis oocyte expression: Plasmid DNAs of GIRK channel subunits were linearized prior to in vitro transcription. Capped RNAs were transcribed using mMESSAGE mMACHINE T7 Transcription Kit (Thermo Fisher Scientific). Xenopus oocytes were surgically extracted, dissociated and defolliculated by collagenase treatment, and microinjected with 50 nl of a water solution containing 1 ng of each GIRK subunit RNA. For TEVC experiments, oocytes were kept 2 days at 17° C. before recording, while for NPo experiments oocytes were incubated for up to 4 days at 17° C.
Xenopus laevis oocyte expression: All cDNA constructs in the pGEMHE vector were linearized using the NheI restriction enzyme, whereas those in the pXoom vector were linearized using the XhoI restriction enzyme. Linearized cDNAs were in vitro-transcribed using the mMessage mMachine® kit (Ambion) kit. Complementary RNA (cRNA) concentrations were quantified by optical density. Xenopus oocytes were surgically extracted, dissociated, and defolliculated by collagenase treatment and microinjected with 50 nl of the desired cRNAs diluted in RNAase-free water. The use of Xenopus laevis frogs for this study was approved by the Institutional Animal Care and Use Committee (IACUC) at Northeastern University. All constructs used in this study were injected to achieve between 1-2 ng per oocyte depending on the channel. Oocytes were incubated for 2 days at 18° C.
Electrophysiology of oocytes: Whole-oocyte currents were measured by conventional two-electrode voltage clamp (TEVC) with a GeneClamp 500 amplifier (Axon Instruments). […] Barium-sensitive currents were normalized to average basal current in the vehicle solutions. The HK solution contained the following: 96 mM KCl, 1 mM NaCl, 1 mM MgCl2, 5 mM KOH/HEPES, pH 7.4. The barium solution consisted of HK+10 mM BaCl2. Five to ten oocytes from the same batch (same frog) were recorded for each group, and the experiments were repeated in at least four batches. Data acquisition and analysis were carried out using pClamp9 (Molecular Devices) and OriginPro (Microcal) software.

Setting [1] is: ML297 considered 100%, read-out: EMAX at GIRK1/2, % relative to ML297.

This is an account of results in US12351574B2, “Selective ligands for modulation of GIRK channels” (Northeastern University, priority 2018, dated 2025).

“And” between values parts separate entries of the source, which are not always exact repeats. Equal values may be shown once. “Also recorded” adds a separate entry of the source. Read-outs that look alike come from different tables or passages of the source.

As usually defined, the EC50 is the concentration at which the effect is half-maximal. High values mean a need for much substance, low ones an effect from little substance. With `Cc1cc(NC(=O)Nc2ccc(Br)s2)n(-c2ccccc2)n1` [GAT1508, 1-(5-bromothiophen-2-yl)-3-(3-methyl-1-phenyl-1H-pyrazol-5-yl)urea], the “selectivity for GIRK1/2 over GIRK1/4 (in words)” value (shortened to “selectivity”) is “most selective GIRK1/2 activators relative to GIRK1/4; also recorded: could induce the current increase only in the brain channel”; the EC50 was 370 ± 110 nM; the “EMAX at GIRK1/2” value was 2.42±0.07 and 2.36±0.23. The “GAT1508-induced potassium current, GIRK1/2 (in words)” value (10 μM, 10 mM K+, holding potential −100 mV) was “significantly increased currents”. Also, the “GAT1508-induced thallium current, GIRK1/2 (in words)” value (10 μM, 10 mM thallium, holding potential −100 mV) is on record as “induced current increases”. For the same molecule, the Emax (GAT1508 at wild-type GIRK1/2 considered 100%, read-out: EMAX, % of the control GIRK1/2) turned out to be 100%. Moreover, under setting [1], the Emax was determined as 76%.
For the molecule `Cc1cc(NC(=O)Nc2ccc(C)s2)n(-c2ccccc2)n1` [GAT1521, 1-(3-methyl-1-phenyl-1H-pyrazol-5-yl)-3-(5-methylthiophen-2-yl)urea], the “selectivity” value was “most selective GIRK1/2 activators relative to GIRK1/4; also recorded: retained the specificity for brain over cardiac currents; also recorded: could induce the current increase only in the brain channel”, the EC50 came to 1220 ± 80 nM and the “EMAX at GIRK1/2” value was 2.36±0.06. The Emax under setting [1] is 73%. Also, the “potency/efficacy compared to GAT1508 (in words)” value (concentration-response, FIGS. 34A-34I) is reported as “lower potency than GAT1508”.
In the case of `Cc1cc(NC(=O)Nc2ccc(F)c(F)c2)n(-c2ccccc2)n1` [ML297, reference compound], the “selectivity” value is “stimulated both brain and cardiac heteromeric channels”; it took 340 ± 120 nM to reach a half-maximal effect (EC50); the “EMAX at GIRK1/2” value was 2.87±0.11. Where the note is “10 μM, High Potassium (HK) solution, FIG. 31”, the “compound-induced current normalized to the basal current, GIRK1+GIRK2” value is around 2.5. For the same molecule, where the note is “ML297 considered 100%”, the “EMAX at GIRK1/2, % relative to ML297” value turned out to be 100%.
